From BindingDB's records for doi:10.1021/jm970338c (University of Grenoble, 1998)

Biological target: Beta-2 adrenergic receptor (Rattus norvegicus) (UniProt P10608)
Assay: Inhibition of beta-2 adrenergic receptor isolated from rat lung homogenates

Beta-2 adrenergic receptor (Rattus norvegicus), sequence (P10608 whole entry, looked up): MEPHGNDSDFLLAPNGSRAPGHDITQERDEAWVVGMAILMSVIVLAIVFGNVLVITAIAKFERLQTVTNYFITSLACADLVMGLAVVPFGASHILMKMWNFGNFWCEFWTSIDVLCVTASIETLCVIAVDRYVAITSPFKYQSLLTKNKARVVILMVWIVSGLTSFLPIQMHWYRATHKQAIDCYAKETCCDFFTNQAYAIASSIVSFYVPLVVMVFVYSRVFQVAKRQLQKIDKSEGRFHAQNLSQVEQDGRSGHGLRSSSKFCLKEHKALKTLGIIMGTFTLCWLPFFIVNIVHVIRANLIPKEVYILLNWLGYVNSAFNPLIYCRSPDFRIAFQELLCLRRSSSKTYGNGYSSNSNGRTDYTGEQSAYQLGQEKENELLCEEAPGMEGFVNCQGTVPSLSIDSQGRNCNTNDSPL

Structure (SMILES) | IC50 [µM]
Cc1ccc(NCC(O)CON=C(C2CC2)C2CC2)cc1 (stereo unspecified) [Dicyclopropyl-methanone O-(2-hydroxy-3-p-tolylamino-propyl)-oxime] | > 10
CC(C)(C)c1ccc(NCC(O)CON=C(C2CC2)C2CC2)cc1 (stereo unspecified) [Dicyclopropyl-methanone O-[3-(4-tert-butyl-phenylamino)-2-hydroxy-propyl]-oxime] | > 10
OC(CNc1ccccc1)CON=C(C1CC1)C1CC1 (stereo unspecified) [Dicyclopropylmethanone O-(3-anilino-2-hydroxypropyl)oxime] | > 10
CCCCc1ccc(NCC(O)CON=C(C2CC2)C2CC2)cc1 (stereo unspecified) [Dicyclopropyl-methanone O-[3-(4-butyl-phenylamino)-2-hydroxy-propyl]-oxime] | > 10
Oc1ccc(NCC(O)CON=C(C2CC2)C2CC2)cc1 (stereo unspecified) [Dicyclopropyl-methanone O-[2-hydroxy-3-(4-hydroxy-phenylamino)-propyl]-oxime] | > 10
Cc1ccccc1NCC(O)CON=C(C1CC1)C1CC1 (stereo unspecified) [Dicyclopropyl-methanone O-(2-hydroxy-3-o-tolylamino-propyl)-oxime] | > 10
OC(CNc1ccc(F)cc1)CON=C(C1CC1)C1CC1 (stereo unspecified) [Dicyclopropyl-methanone O-[3-(4-fluoro-phenylamino)-2-hydroxy-propyl]-oxime] | > 10
OC(CNc1ccc(Br)cc1)CON=C(C1CC1)C1CC1 (stereo unspecified) [Dicyclopropyl-methanone O-[3-(4-bromo-phenylamino)-2-hydroxy-propyl]-oxime] | > 10
OC(CNc1ccc(-c2ccccc2)cc1)CON=C(C1CC1)C1CC1 (stereo unspecified) [Dicyclopropyl-methanone O-[3-(biphenyl-4-ylamino)-2-hydroxy-propyl]-oxime] | > 10
OC(CNc1ccccc1I)CON=C(C1CC1)C1CC1 (stereo unspecified) [Dicyclopropyl-methanone O-[2-hydroxy-3-(2-iodo-phenylamino)-propyl]-oxime] | > 10
OC(CNc1ccccn1)CON=C(C1CC1)C1CC1 (stereo unspecified) [Dicyclopropyl-methanone O-[2-hydroxy-3-(pyridin-2-ylamino)-propyl]-oxime] | > 10
CC(C)(Cc1ccc(NCC(O)CON=C(C2CC2)C2CC2)cc1)NCC(O)CON=C(C1CC1)C1CC1 (stereo unspecified) [Dicyclopropyl-methanone O-(3-{2-[4-(3-dicyclopropylmethyleneaminooxy-2-hydroxy-propylamino)-phenyl]-1,1-dimethyl-ethylamino}-2-hydroxy-propyl)-oxime] | 1.5
CCOC(=O)c1ccc(NCC(O)CON=C(C2CC2)C2CC2)cc1 (stereo unspecified) [4-(3-Dicyclopropylmethyleneaminooxy-2-hydroxy-propylamino)-benzoic acid ethyl ester] | > 10
Cc1ccc(NCC(O)CON=C(C2CC2)C2CC2)nc1 (stereo unspecified) [Dicyclopropyl-methanone O-[2-hydroxy-3-(5-methyl-pyridin-2-ylamino)-propyl]-oxime] | > 10
O=C(O)c1ccc(NCC(O)CON=C(C2CC2)C2CC2)cc1 (stereo unspecified) [4-(3-Dicyclopropylmethyleneaminooxy-2-hydroxy-propylamino)-benzoic acid] | > 10
OC(CNc1ccc(C(F)(F)F)cc1)CON=C(C1CC1)C1CC1 (stereo unspecified) [Dicyclopropyl-methanone O-[2-hydroxy-3-(4-trifluoromethyl-phenylamino)-propyl]-oxime] | > 10

Structure (SMILES) | IC50 [µM]
Cc1cccc(NCC(O)CON=C(C2CC2)C2CC2)n1 (stereo unspecified) [Dicyclopropyl-methanone O-[2-hydroxy-3-(6-methyl-pyridin-2-ylamino)-propyl]-oxime] | > 10
OC(CNc1ccccc1-c1ccccc1)CON=C(C1CC1)C1CC1 (stereo unspecified) [Dicyclopropyl-methanone O-[3-(biphenyl-2-ylamino)-2-hydroxy-propyl]-oxime] | > 10
CC(C)(N)Cc1ccc(NCC(O)CON=C(C2CC2)C2CC2)cc1 (stereo unspecified) [Dicyclopropyl-methanone O-{3-[4-(2-amino-2-methyl-propyl)-phenylamino]-2-hydroxy-propyl}-oxime] | > 10
OC(CNc1cccc(I)c1)CON=C(C1CC1)C1CC1 (stereo unspecified) [Dicyclopropyl-methanone O-[2-hydroxy-3-(3-iodo-phenylamino)-propyl]-oxime] | > 10
Cc1ccnc(NCC(O)CON=C(C2CC2)C2CC2)c1 (stereo unspecified) [Dicyclopropyl-methanone O-[2-hydroxy-3-(4-methyl-pyridin-2-ylamino)-propyl]-oxime] | > 10
CN(CC(O)CON=C(C1CC1)C1CC1)c1ccccc1 (stereo unspecified) [Dicyclopropyl-methanone O-[2-hydroxy-3-(methyl-phenyl-amino)-propyl]-oxime] | > 10
OC(CNc1ccc(Cl)cc1)CON=C(C1CC1)C1CC1 (stereo unspecified) [Dicyclopropyl-methanone O-[3-(4-chloro-phenylamino)-2-hydroxy-propyl]-oxime] | > 10
OC(CNc1nc2ccccc2s1)CON=C(C1CC1)C1CC1 (stereo unspecified) [Dicyclopropyl-methanone O-[3-(benzothiazol-2-ylamino)-2-hydroxy-propyl]-oxime] | > 10
OC(CNc1nc2ccccc2[nH]1)CON=C(C1CC1)C1CC1 (stereo unspecified) [Dicyclopropyl-methanone O-[3-(1H-benzoimidazol-2-ylamino)-2-hydroxy-propyl]-oxime] | > 10
OC(CNc1ccc(I)cc1)CON=C(C1CC1)C1CC1 (stereo unspecified) [Dicyclopropyl-methanone O-[2-hydroxy-3-(4-iodo-phenylamino)-propyl]-oxime] | > 10
CC(C)(Cc1ccc(NCC(O)CO[N-][C+](C2CC2)C2CC2)cc1)[N+](=O)[O-] (stereo unspecified) [Dicyclopropyl-methanone O-{2-hydroxy-3-[4-(2-methyl-2-nitro-propyl)-phenylamino]-propyl}-oxime] | > 10
OC(CNc1ccncc1)CON=C(C1CC1)C1CC1 (stereo unspecified) [Dicyclopropyl-methanone O-[2-hydroxy-3-(pyridin-4-ylamino)-propyl]-oxime] | > 10
O=[N+]([O-])c1ccc(NCC(O)CO[N-][C+](C2CC2)C2CC2)cc1 (stereo unspecified) [Dicyclopropyl-methanone O-[2-hydroxy-3-(4-nitro-phenylamino)-propyl]-oxime] | > 10
Cc1cccc(NCC(O)CON=C(C2CC2)C2CC2)c1 (stereo unspecified) [Dicyclopropyl-methanone O-(2-hydroxy-3-m-tolylamino-propyl)-oxime] | > 10
CC(C)(Cc1ccc(N)cc1)NCC(O)CON=C(C1CC1)C1CC1 (stereo unspecified) [Dicyclopropyl-methanone O-{3-[2-(4-amino-phenyl)-1,1-dimethyl-ethylamino]-2-hydroxy-propyl}-oxime] | 2
